Earlier results on ten molecules are cited in patent US9126163B2, “Nanoemulsions and processes for their preparation, and their use as formulations of plant protection agents and/or pesticides and/or cosmetic preparations” (Evonik Degussa GmbH, priority 2008, dated 2015).

Values after ≈ are worked out from the molar mass of the structure shown.

On to `CC1(C)C(C=C(Cl)Cl)C1C(=O)OCc1cccc(Oc2ccccc2)c1` (stereo not shown) [permethrin], for which the solubility in water is 0.006 mg/L (≈ 0.0153 µM). `COC(=O)Nc1nc2ccccc2[nH]1` [carbendazim]: the solubility in water is 29 mg/L (≈ 152 µM). As to abamectin, the solubility in water was 0.007 to 0.01 mg/L. Consider `O=C(Nc1ccc([N+](=O)[O-])cc1Cl)c1cc(Cl)ccc1O` [niclosamide], for which the solubility in water was 100 mg/L (≈ 306 µM). Take `CCCCCCCCCCCCCN1CC(C)OC(C)C1` (stereo not shown) [tridemorph]: the solubility in water is 1.1 mg/L (≈ 3.7 µM). Take mancozeb: the solubility in water is 6.2 ppm. Regarding `Fc1ccc([C@]2(Cn3cncn3)O[C@H]2c2ccccc2Cl)cc1` (racemic) [epoxyconazole], the solubility in water is 6.63*10^−4 g/100 ml. For the molecule `COc1cc(OC)nc(NC(=O)NS(=O)(=O)c2ncccc2C(=O)N(C)C)n1` [nicosulfuron], the solubility in water is 70 mg/L (≈ 171 µM).

`CO/C=C(/C(=O)OC)c1ccccc1Oc1cc(Oc2ccccc2C#N)ncn1` [azoxystrobin]: the solubility in water is 6 mg/L (≈ 14.9 µM). For the molecule `Cc1c(COC(=O)[C@@H]2[C@H](/C=C(\Cl)C(F)(F)F)C2(C)C)cccc1-c1ccccc1` (racemic) [bifenthrin], the solubility in water is under 0.001 mg/L.
